From paper PMC5740082, “Identification of a CARM1 Inhibitor with Potent In Vitro and In Vivo Activity in Preclinical Models of Multiple Myeloma” (Scientific Reports, 2017)
Where two headings read alike, the source gives them in different places.

What was measured:
CARM1 = molecular target: T1, CARM1 (Homo sapiens, UniProt Q86X55); experiment: CARM1 histone methyltransferase (biochemical) assay; conditions: for IC50: 30 min preincubation, IC50 measured at 120 minutes
T1 construct: FLAG-CARM1 (amino acids 2–585)-His for biochemical studies was expressed in 293 F mammalian cells; made in house; host or cells: 293F mammalian cells
T1 sequence (Q86X55 2-585 isoform Q86X55-1): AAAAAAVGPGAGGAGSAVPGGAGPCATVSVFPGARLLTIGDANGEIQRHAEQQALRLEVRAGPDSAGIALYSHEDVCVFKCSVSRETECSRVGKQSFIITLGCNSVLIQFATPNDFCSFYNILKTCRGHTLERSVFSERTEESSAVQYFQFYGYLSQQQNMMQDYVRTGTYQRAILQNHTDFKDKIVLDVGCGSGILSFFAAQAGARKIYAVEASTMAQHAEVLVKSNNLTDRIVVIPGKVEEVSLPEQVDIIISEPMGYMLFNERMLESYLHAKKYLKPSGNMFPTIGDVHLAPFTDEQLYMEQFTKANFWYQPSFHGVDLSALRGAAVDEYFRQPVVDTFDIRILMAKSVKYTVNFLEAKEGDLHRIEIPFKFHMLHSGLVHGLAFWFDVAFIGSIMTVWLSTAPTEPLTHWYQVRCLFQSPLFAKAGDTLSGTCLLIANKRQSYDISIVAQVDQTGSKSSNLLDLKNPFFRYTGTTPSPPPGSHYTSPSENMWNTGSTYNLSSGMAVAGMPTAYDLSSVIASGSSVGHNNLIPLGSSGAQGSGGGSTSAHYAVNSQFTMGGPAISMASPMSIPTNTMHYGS
Method: CARM1 activity was measured as previously reported for the histone methyltransferases PRMT1/6/8[65] and PRMT5[58]. Briefly, CARM1 was preincubated with compounds for 30 minutes at room temperature before reactions were initiated. […] The assays were quenched by the addition of 300 μM unlabeled SAM. The quantity of ^3H-labeled peptide produced was measured by Flashplate on a Topcount reader. Further details can be found in the Supplementary Methods.
Histone methyltransferase assay
The compounds were preincubated with CARM1 for 30 minutes at room temperature before the reactions were initiated by the addition of substrates. […]
containing 20 mM bicine, 1 mM tris(2-carbox yethyl)phosphine, 0.005% bovine skin gelatin and 0.002% Tween-20, pH 7.5 and 2% DMSO. The peptide sequence was biotin-aminohexanoate- […]
eKS AP-amide, where RMe is a monomethylated arginine residue (21st
Century Biochemicals, Marlboro, MA). After 2 hours, assa ys were quenched b y the addition of 300 μM unlabeled SAM. The reactions were tran sferred to a 384-well Flashplate (Perkin Elmer) and the biotinylated peptides were allowed to bind to the streptavidin surface for at least 1 hour before being washed once with 0.1% Tween 20. The quantit y of 3H-labeled peptide bound to the Flashplate surface was counted on a Topcount reader as counts per minute (cpm). % Inhibition values wer e calculated and IC50 values were fit using the 3 -param eter IC50 equation below:
YY = BBBBBBBBBBBB + (100 − BBBBBBBBBBBB )HHHHHHHH CCCCCCCCCCHHCCHHCCCCCC where top is fixed at 100 or the maximum inhibition plateau , Y is % inhibition and X is […]
IC50 vs [peptide] data were fit to the noncom petitive Cheng- Prusoff […]
The effect of reaction time on compound potency was determined b y meas uring IC50 values from […]
to a one phase exponential deca y equation. […]
activity was measured under standard conditions after a 30 minute preincubation.
IC 50 values were d etermi ned and data wer e anal yz ed using the following eq uation: […]

[1] = system: asymmetric di-methyl PABP1 in RKO cells; experiment: In cell western (ICW) assay for asymmetric di-methyl PABP1; conditions: Homo sapiens, 48 h, read-out: CARM1 ICW IC50
Method: In cell w estern assay f or detection of asymmetric di -methyl PABP1 an d DNA content RKO cells (ATCC) were maintained in growth medium (DMEM/Glutamax medium supplemented with 10% v/v heat inactivated fetal bovine serum and 100 units/mL penicillin-streptom ycin) and cultured at 37 °C under 5% CO2. Cells were seeded in assay medium at a concentration of 30,000 cells per m L to a pol y -D-l ys ine coated 384 well culture plate with 50 µ L per well. Compound (100 nL) from a 96-well sou rce plate was add ed directl y to 384 well cell plate. Plates were incubated at 37°C, 5% CO2 for 48 hours. After two da ys of incubation, plates were brought to room temperature outside of the incubator for ten minutes and blotted on paper towels to remove cell media. Cells were fixed for 20 minutes atroom temperature b y adding 50 µl of 8% PFA followed by aspiration of supernatant. Cells were then permeabilized by addition of 50 µ L of i ce cold 100% methanol directl y to each well and incubated for 30 min at room temperature. After 30 min, plates were washed 2 times with 100 µL per well of wash buffer (1X PBS). Next 60 µL per well of Odysse y blocking buffer (Od ysse y Buffer wi th 0.1% Tween 20 (v/v)) were added to each plate and incubat ed 1 hour at room temperature. Blocking buffer was removed and 20 µ L per well of primar y antibod y was added (as ymmetric-methyl PABP1) diluted 1:400 in Odysse y buffer with 0.1% Tween 20 (v/v)) and plates were incubated overni ght (16 hours) at 4°C. Plates were washed 5 times wit h 100 µ L per well of wash buffer. Next 20 µL per well of secondar y ant ibody was added (1:800 800CW goat anti-rabbit IgG (H+L) antibod y, 1:2000 DRAQ5 in Odyss ey buffer with 0.1% Tween 20 (v/v)) and incubated for 1 hour at room temperature. The plates were washed 5 times wit h 100 µ L per well wash buffer then 2 times with 100 µ L per well of w ater . Plates were allowed to dr y at room temper ature t hen imag ed on the Lico r Od ysse y machine. The ratio of as ymmetri c di-methyl PABP1 to DR AQ5 was det ermined for each well and then used to determine percent i nhibition relative to DMSO control. IC 50 curves were generated us ing triplicate wells per concentration of compound.

[2] = system: 20 other diverse HMTs in the Epizyme enzyme panel; experiment: Methyltransferase cross screening panel
[3] = Pharmacokinetic profiles in mice and rats; type: in vivo
[4] = system: PABP1, SmB, aDMA and histone H3 methylation in RPMI-8226 cells; experiment: Western blot of cellular methyl marks, RPMI-8226; type: cell-based, human; conditions: for IC50: Homo sapiens
[5] = read-out: CARM1 Biochemical IC50

| Structure (SMILES) | IC50 (CARM1; read-out: CARM1 IC50) [nM] | IC50 [1] [µM] | fold more potent against CARM1 than compound 1 (CARM1) [fold] | IC50 (CARM1; [5]) [nM] | selectivity for CARM1 over 20 other diverse HMTs [2] | pharmacokinetic profiles [3] | biochemical potency against CARM1 compared with EZM2302 (CARM1) | IC50 ([4]; 96 h, RPMI-8226, four days, 0.0003 to 5 µM, read-out: IC50, SmBme0) [µM] | IC50 ([4]; RPMI-8226, 96 h treatment, read-out: IC50, methylation of PABP1 (PABP1me2a)) [µM] | changes in methylation ([4]; RPMI-8226, four days) |
| --- | --- | --- | --- | --- | --- | --- | --- | --- | --- | --- |
| Cn1cnc2ccc(-c3cccc(OCC(O)CN)c3)nc21 (stereo not drawn) [Compound 1] | 2300 ± 800 | > 20 |  |  |  |  |  |  |  |  |
| CC(C)n1ncc2c(N3CCOCC3)cc(-c3cccc(OCC(O)CN)c3)nc21 (stereo not drawn) [Compound 2] |  | 19 | 50 | 46 ± 9 | more than 100 fold |  |  |  |  |  |
| CNC[C@@H](O)COc1ccc(Cl)c(-c2nc(-c3c(C)noc3C)c(C)c(N3Cc4cnc(N5CCC5)nc4C3)n2)c1 [EPZ025654] |  | 0.011 |  | 3 |  | without satisfactory pharmacokinetic profiles |  |  |  |  |
| CNC[C@@H](O)COc1cc(-c2nc(-c3c(C)noc3C)c(C)c(N3CC4(CCN(C(=O)OC)CC4)C3)n2)ccc1Cl [EPZ029751, methyl 2-(2-(4-chloro-3-((R)-2-hydroxy-3-(methylamino)propoxy)phenyl)-6-(3,5-dimethylisoxazol-4-yl)-5-methylpyrimidin-4-yl)-2,7-diazaspiro[3.5]nonane-7-carboxylate] |  | > 6.5 |  | > 1000 |  |  | much weaker biochemical potency | > 5 | > 5 | No robust changes in methylation |
